Assays:
[1] = tested on: AMPA receptor ([^3 H]AMPA binding, crude membranes of rat forebrain); experiment: [^3 H]-AMPA displacement, EAA receptor binding; details: 10 μM test compound, [^3 H]AMPA 5 nM, 100 mM KSCN
Method: (§1) Referring to Table IV, there are shown the results obtained in testing a representative number of these compounds. In Table IV, the activity of the compounds for EAA receptor binding is indicated. Compounds were evaluated for their ability to displace [^3 H]-CGS191755, [^3 H]-glycine, [^3 H]-AMPA and [^3 H]-kainate at a screening concentration of 10 μM.
(§2) Binding assays, except for glycine binding, were performed in accordance with the methods described in Schoepp et al., J. Pharmacology and Exp. Therap., Vol. 255, No. 3, pp. 1301-1308 (1990). For all binding assays, male Sprague-Dawley rats (150-175 g) were used. Displacement of the specific binding of ^3 H]CGS19755 (10 nM) to Triton-X-treated synaptosomal membranes of rat forebrain was used to determine NMDA receptor affinity. Nonspecific binding was determined using 10 μM L-glutamate. Samples were incubated in an ice bath for 30 minutes, and bound ligand was separated from the free ligand by rapid filtration through Whatman GF/B glass fiber filters.
The binding of [^3 H]AMPA (5 nM) was conducted with crude membranes of rat forebrain in the presence of 100 mM KSCN, as described by Nielsen et al., "Studies on Receptor-Active Conformations of Excitatory Amino Acid Agonists and Antagonists," Eur. J. Med. Chem. Chim. Ther. 21:433-437 (1986). Nonspecific binding was determined with 10 μM nonlabeled AMPA.

[2] = tested on: kainate (KA) receptor ([^3 H]Kainate binding, washed synaptosomal membranes from the rat forebrain); experiment: [^3 H]-kainate displacement, EAA receptor binding; details: 10 μM test compound, [^3 H]Kainate 5 nM, pH 7.4, 30 min
Method: as §1, §2
[^3 H]Kainate binding was performed using washed synaptosomal membranes from the rat forebrain, prepared as described by Simon et al., "Binding of [^3 H]Kainic Acid, an Analogue of L-Glutamate, to Brain Membranes," J. Neurochem. 26:141-147 (1976). [^3 H]Kainate (5 nM) was added to 50 mM Tris-HCl buffer (pH 7.4 at 4°) containing 200-300 μg/ml of tissue protein. Samples were incubated for 30 minutes in an ice bath and then rapidly filtered using a Brandel cell harvester and Whatman GF/C filters. Filters were washed twice with 3 ml of cold buffer. Nonspecific binding was determined using 100 μM nonlabeled kainate.

[3] = target: T1, Strychnine-Insensitive [^3 H]Glycine Binding Sites, washed membranes of rat brain cortex (Rattus norvegicus, UniProt P35439); experiment: biochemical; details: 1 h, read-out: [^3 H]-Glycine Binding % DSPL10 @ 10 μM, 10 μM test compound, 60 minutes on ice
T1 construct: washed membranes of rat brain cortex; from tissue; host or cells: brain cortex membranes, male Sprague-Dawley rats (150-175 g)
Method: as §1, §2
The compounds were examined for their ability to displace [^3 H]-glycine from washed membranes of rat brain cortex according to the methods of Shinohara et al., "Ontogeny of Strychnine-Insensitive [^3 H]Glycine Binding Sites in Rat Forebrain", Neurosci. Lett. 105 (1990) 307-311. In each assay, […] [^3 H]-glycine and 25 μg tissue were incubated with test compounds (10 μM in a total volume of 0.5 ml for 60 minutes on ice; incubations were terminated by centrifugation. Non-specific binding was defined as that remaining in the presence of 10 μM D-serine.

O=c1[nH]c2c(Cl)cc(Cl)cc2c2ccnn12 [Compound 33, 7,9-dichloropyrazolo[1,5-c]quinazolin-5(6H)-one]
AMPA % DSPL @ 10 μM [1]: 5.1%
KA % DSPL @ 10 μM [2]: 7.4%
inhibition at 10 µM [3]: -3%

Cc1cc2c3ccccc3[nH]c(=O)n2n1 [Compound 34, 2-methylpyrazolo[1,5-c]quinazolin-5(6H)-one]
AMPA % DSPL @ 10 μM [1]: 0.2%
KA % DSPL @ 10 μM [2]: 0.9%
inhibition at 10 µM [3]: 13%

O=c1[nH]c2cc(C(F)(F)F)ccc2c2ccnn12 [Compound 35, 8-trifluoromethylpyrazolo[1,5-c]quinazolin-5(6H)-one]
AMPA % DSPL @ 10 μM [1]: 54.8%
KA % DSPL @ 10 μM [2]: 8.4%
inhibition at 10 µM [3]: 51%

Clc1cc2ncc3nccn3c2cc1Cl [Compound 36, 7,8-dichloroimidazo[1,2-a]quinoxaline]
AMPA % DSPL @ 10 μM [1]: 53.3%
KA % DSPL @ 10 μM [2]: 23.6%
inhibition at 10 µM [3]: 88%

O=c1[nH]c2ccc(Cl)cc2c2nc3ccccc3n12 [Compound 38, chlorobenzimidazo[1,2-a]quinazolin-4(5H)-one]
AMPA % DSPL @ 10 μM [1]: 4.1%
KA % DSPL @ 10 μM [2]: -0.8%
inhibition at 10 µM [3]: 3%

Reference: US5196421A, “Excitatory amino acid receptor antagonists in methods for the use thereof” (priority 1992, dated 1993)
